Laboratory results taken from PubChem BioAssay (NCI).
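Interpolation was linear, between the two tested concentrations surrounding the appropriate level; five concentrations were tested over 48 hours in 96-well plates. Abbreviation: GI50, concentration required for 50% inhibition of growth. TGI marks complete inhibition of growth.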

How the values were obtained:
Experiment in all cases: inhibition of tumour cell growth, NCI panel, 48 h
[1] = test system: HL-60(TB) leukemia
[2] = test system: MDA-MB-231 breast
[3] = test system: IGROV1 ovarian
[4] = test system: OVCAR-3 ovarian
[5] = test system: CAKI-1 renal
[6] = test system: SF-268 CNS
[7] = test system: T-47D breast
[8] = test system: HCT-116 colon
[9] = test system: HT29 colon
[10] = test system: NCI-H23 lung
[11] = test system: NCI/ADR-RES ovarian
[12] = test system: UO-31 renal
[13] = test system: HOP-92 NSCLC
[14] = test system: OVCAR-8 ovarian
[15] = test system: SK-OV-3 ovarian
[16] = test system: KM12 colon
[17] = test system: M14 melanoma
[18] = test system: BT-549 breast
[19] = test system: SK-MEL-28 melanoma
[20] = test system: HCC-2998 colon
[21] = test system: EKVX NSCLC
[22] = test system: A498 renal
[23] = test system: MCF7 breast
[24] = test system: RPMI-8226 leukemia
[25] = test system: LOX IMVI melanoma
[26] = test system: NCI-H226 lung
[27] = test system: SF-539 CNS
[28] = test system: SR leukemia
[29] = test system: OVCAR-4 ovarian
[30] = test system: COLO 205 colon
[31] = test system: HS 578T breast
[32] = test system: MDA-MB-435
[33] = test system: A549 NSCLC
[34] = test system: SW-620 colon
[35] = test system: K-562 leukemia
[36] = test system: HOP-62 NSCLC
[37] = test system: SF-295 CNS
[38] = test system: SK-MEL-2 melanoma
[39] = test system: SK-MEL-5 melanoma
[40] = test system: MALME-3M melanoma
[41] = test system: MOLT-4 leukemia
[42] = test system: RXF 393 renal
[43] = test system: HCT-15 colon
[44] = test system: 786-0 renal

## C#C[C@]1(O)CC[C@H]2[C@@H]3CC=C4c5sc(Nc6cc(Cl)ccc6OC)nc5CC[C@]4(C)[C@H]3CC[C@@]21C
[1]
  GI50: 840 nM
  TGI: 3960 nM
[2]
  GI50: 1960 nM
  TGI: 4880 nM
[3]
  GI50: 1790 nM
  TGI: 5640 nM
[4]
  GI50: 1640 nM
  TGI: 3560 nM
[5]
  GI50: 1520 nM
  TGI: 4150 nM
[6]
  GI50: 2210 nM
  TGI: > 100000 nM
[7]
  GI50: 2410 nM
  TGI: > 100000 nM
[8]
  GI50: 1130 nM
  TGI: 2560 nM
[9]
  GI50: 1790 nM
  TGI: 4860 nM
[10]
  GI50: 1810 nM
  TGI: > 100000 nM
[11]
  GI50: 2520 nM
  TGI: 48800 nM
[12]
  GI50: 1450 nM
  TGI: 3040 nM
[13]
  GI50: 2470 nM
  TGI: 6750 nM
[14]
  GI50: 3550 nM
  TGI: > 100000 nM
[15]
  GI50: 4270 nM
  TGI: > 100000 nM
[16]
  GI50: 1970 nM
  TGI: 4350 nM
[17]
  GI50: 1400 nM
  TGI: 4930 nM
[18]
  GI50: 797 nM
  TGI: 5460 nM
[19]
  GI50: 420 nM
  TGI: 1660 nM
[20]
  GI50: 1750 nM
  TGI: 3390 nM
[21]
  GI50: 1630 nM
  TGI: 6390 nM
[22]
  GI50: 219 nM
  TGI: 1050 nM
[23]
  GI50: 808 nM
  TGI: 2350 nM
[24]
  GI50: 251 nM
  TGI: 684 nM
[25]
  GI50: 1380 nM
  TGI: 2880 nM
[26]
  GI50: 1620 nM
  TGI: 3510 nM
[27]
  GI50: 359 nM
  TGI: 1460 nM
[28]
  GI50: 578 nM
  TGI: 4510 nM
[29]
  GI50: 3540 nM
  TGI: > 100000 nM
[30]
  GI50: 2190 nM
  TGI: 4390 nM
[31]
  GI50: 486 nM
  TGI: 5870 nM
[32]
  GI50: 1890 nM
  TGI: 5410 nM
[33]
  GI50: 2860 nM
  TGI: > 100000 nM
[34]
  GI50: 1670 nM
  TGI: 3860 nM
[35]
  GI50: 581 nM
  TGI: 9420 nM
[36]
  GI50: 2560 nM
  TGI: > 100000 nM
[37]
  GI50: 306 nM
  TGI: 1120 nM
[38]
  GI50: 1300 nM
  TGI: 4610 nM
[39]
  GI50: 1930 nM
  TGI: 4050 nM
[40]
  GI50: 1330 nM
  TGI: 3700 nM
[41]
  GI50: 454 nM
  TGI: 4600 nM
[42]
  GI50: 178 nM
  TGI: 503 nM
[43]
  GI50: 1330 nM
  TGI: 3260 nM
[44]
  GI50: 381 nM
  TGI: 1970 nM
